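Cultured in 96-well plates, cells were exposed to test compound for 48 hours across five concentrations. GI50 is the concentration that inhibits growth by half. TGI is the concentration that stops growth completely.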
Legend:
Assay in all cases: DTP human tumour cell line panel, 48 h
NCI-H23 lung = system: NCI-H23 lung
SF-268 CNS = system: SF-268 CNS
HL-60(TB) leukemia = system: HL-60(TB) leukemia
SK-MEL-5 melanoma = system: SK-MEL-5 melanoma
PC-3 prostate = system: PC-3 prostate
SK-MEL-28 melanoma = system: SK-MEL-28 melanoma
786-0 renal = system: 786-0 renal
U251 CNS = system: U251 CNS
K-562 leukemia = system: K-562 leukemia
MOLT-4 leukemia = system: MOLT-4 leukemia
NCI/ADR-RES ovarian = system: NCI/ADR-RES ovarian
RXF 393 renal = system: RXF 393 renal
SF-539 CNS = system: SF-539 CNS
SF-295 CNS = system: SF-295 CNS
IGROV1 ovarian = system: IGROV1 ovarian
UO-31 renal = system: UO-31 renal
HCT-116 colon = system: HCT-116 colon
NCI-H460 lung = system: NCI-H460 lung
OVCAR-3 ovarian = system: OVCAR-3 ovarian
A498 renal = system: A498 renal
ACHN renal = system: ACHN renal
HT29 colon = system: HT29 colon
DU-145 prostate = system: DU-145 prostate
UACC-62 melanoma = system: UACC-62 melanoma
OVCAR-5 ovarian = system: OVCAR-5 ovarian
HCT-15 colon = system: HCT-15 colon
HOP-92 NSCLC = system: HOP-92 NSCLC
MALME-3M melanoma = system: MALME-3M melanoma
OVCAR-8 ovarian = system: OVCAR-8 ovarian
TK-10 renal = system: TK-10 renal
SR leukemia = system: SR leukemia
NCI-H226 lung = system: NCI-H226 lung
A549 NSCLC = system: A549 NSCLC
HCC-2998 colon = system: HCC-2998 colon
NCI-H522 lung = system: NCI-H522 lung
SN12C renal = system: SN12C renal
RPMI-8226 leukemia = system: RPMI-8226 leukemia
EKVX NSCLC = system: EKVX NSCLC
MCF7 breast = system: MCF7 breast
BT-549 breast = system: BT-549 breast
SK-OV-3 ovarian = system: SK-OV-3 ovarian
HS 578T breast = system: HS 578T breast
CAKI-1 renal = system: CAKI-1 renal
MDA-MB-435 = system: MDA-MB-435
COLO 205 colon = system: COLO 205 colon
T-47D breast = system: T-47D breast
UACC-257 melanoma = system: UACC-257 melanoma
SK-MEL-2 melanoma = system: SK-MEL-2 melanoma
OVCAR-4 ovarian = system: OVCAR-4 ovarian
SW-620 colon = system: SW-620 colon
SNB-75 CNS = system: SNB-75 CNS
LOX IMVI melanoma = system: LOX IMVI melanoma
SNB-19 CNS = system: SNB-19 CNS
MDA-MB-231 breast = system: MDA-MB-231 breast
CCRF-CEM leukemia = system: CCRF-CEM leukemia
HOP-62 NSCLC = system: HOP-62 NSCLC
KM12 colon = system: KM12 colon
M14 melanoma = system: M14 melanoma

With `CCN(CC)c1ccc(/C=N/NC(=O)c2ccc(NS(C)(=O)=O)cc2)c(O)c1` the GI50 (NCI-H23 lung) was 1160 nM, the TGI (NCI-H23 lung) was 30600 nM and the GI50 (SF-268 CNS) was 243 nM. For the same compound, the TGI (SF-268 CNS) was 17300 nM, the GI50 (HL-60(TB) leukemia) was 242 nM and the GI50 (SK-MEL-5 melanoma) was 853 nM. It also gave a TGI (SK-MEL-5 melanoma) of 21300 nM, a GI50 (PC-3 prostate) of 369 nM and a TGI (PC-3 prostate) greater than 54000 nM. The GI50 (SK-MEL-28 melanoma) was 444 nM, the TGI (SK-MEL-28 melanoma) was greater than 50900 nM and the GI50 (786-0 renal) was 425 nM. It also gave a TGI (786-0 renal) of 4200 nM, a GI50 (U251 CNS) of 239 nM and a TGI (U251 CNS) greater than 37200 nM. For the same compound, the GI50 (K-562 leukemia) was 443 nM, the TGI (K-562 leukemia) was greater than 100000 nM and the GI50 (MOLT-4 leukemia) was 331 nM. For the same compound, the TGI (MOLT-4 leukemia) was 25600 nM, the GI50 (NCI/ADR-RES ovarian) was 3180 nM and the TGI (NCI/ADR-RES ovarian) was 98300 nM. The GI50 (RXF 393 renal) was 788 nM, the TGI (RXF 393 renal) was 3230 nM and the GI50 (SF-539 CNS) was 426 nM. The TGI (SF-539 CNS) was 7070 nM, the GI50 (SF-295 CNS) was 551 nM and the TGI (SF-295 CNS) was 14800 nM. It also gave a GI50 (IGROV1 ovarian) of 540 nM, a TGI (IGROV1 ovarian) greater than 70300 nM and a GI50 (UO-31 renal) of 397 nM. It also gave a TGI (UO-31 renal) of 20500 nM, a GI50 (HCT-116 colon) of 330 nM and a TGI (HCT-116 colon) of 19500 nM. For the same compound, the GI50 (NCI-H460 lung) was 455 nM, the TGI (NCI-H460 lung) was 10200 nM and the GI50 (OVCAR-3 ovarian) was 185 nM. The TGI (OVCAR-3 ovarian) was 26300 nM, the GI50 (A498 renal) was 2950 nM and the TGI (A498 renal) was 25100 nM. For the same compound, the GI50 (ACHN renal) was 497 nM, the TGI (ACHN renal) was 20600 nM and the GI50 (HT29 colon) was 475 nM. It also gave a TGI (HT29 colon) of 16700 nM, a GI50 (DU-145 prostate) of 751 nM and a TGI (DU-145 prostate) of 23300 nM. The GI50 (UACC-62 melanoma) was 381 nM, the TGI (UACC-62 melanoma) was 7100 nM and the GI50 (OVCAR-5 ovarian) was 2470 nM. It also gave a TGI (OVCAR-5 ovarian) greater than 100000 nM, a GI50 (HCT-15 colon) of 386 nM and a TGI (HCT-15 colon) greater than 68800 nM. The GI50 (HOP-92 NSCLC) was 386 nM, the TGI (HOP-92 NSCLC) was 20500 nM and the GI50 (MALME-3M melanoma) was 788 nM. For the same compound, the TGI (MALME-3M melanoma) was 11700 nM, the GI50 (OVCAR-8 ovarian) was 355 nM and the TGI (OVCAR-8 ovarian) was greater than 34000 nM. For the same compound, the GI50 (TK-10 renal) was 833 nM, the TGI (TK-10 renal) was 39900 nM and the GI50 (SR leukemia) was 95.4 nM. For the same compound, the GI50 (NCI-H226 lung) was 1010 nM, the TGI (NCI-H226 lung) was 31800 nM and the GI50 (A549 NSCLC) was 1980 nM. The TGI (A549 NSCLC) was greater than 48500 nM, the GI50 (HCC-2998 colon) was 572 nM and the TGI (HCC-2998 colon) was 19200 nM. It also gave a GI50 (NCI-H522 lung) of 334 nM, a TGI (NCI-H522 lung) of 10400 nM and a GI50 (SN12C renal) of 768 nM. It also gave a TGI (SN12C renal) of 62600 nM, a GI50 (RPMI-8226 leukemia) of 2790 nM and a TGI (RPMI-8226 leukemia) of 16200 nM. For the same compound, the GI50 (EKVX NSCLC) was 574 nM, the TGI (EKVX NSCLC) was greater than 63100 nM and the GI50 (MCF7 breast) was 409 nM. It also gave a TGI (MCF7 breast) of 24500 nM, a GI50 (BT-549 breast) of 658 nM and a TGI (BT-549 breast) of 8610 nM. The GI50 (SK-OV-3 ovarian) was 508 nM, the TGI (SK-OV-3 ovarian) was 20100 nM and the GI50 (HS 578T breast) was 1950 nM. The TGI (HS 578T breast) was 18300 nM, the GI50 (CAKI-1 renal) was 434 nM and the TGI (CAKI-1 renal) was 17700 nM. The GI50 (MDA-MB-435) was 734 nM, the TGI (MDA-MB-435) was 97200 nM and the GI50 (COLO 205 colon) was 356 nM. It also gave a TGI (COLO 205 colon) of 13500 nM, a GI50 (T-47D breast) of 2050 nM and a TGI (T-47D breast) greater than 55300 nM. The GI50 (UACC-257 melanoma) was 568 nM, the TGI (UACC-257 melanoma) was 18400 nM and the GI50 (SK-MEL-2 melanoma) was 2010 nM. For the same compound, the TGI (SK-MEL-2 melanoma) was 16900 nM, the GI50 (OVCAR-4 ovarian) was 355 nM and the TGI (OVCAR-4 ovarian) was 42400 nM. The GI50 (SW-620 colon) was 468 nM, the TGI (SW-620 colon) was greater than 100000 nM and the GI50 (SNB-75 CNS) was 309 nM. The TGI (SNB-75 CNS) was 5650 nM, the GI50 (LOX IMVI melanoma) was 219 nM and the TGI (LOX IMVI melanoma) was 5300 nM. The GI50 (SNB-19 CNS) was 830 nM, the TGI (SNB-19 CNS) was 30700 nM and the GI50 (MDA-MB-231 breast) was 432 nM. For the same compound, the TGI (MDA-MB-231 breast) was 34900 nM, the GI50 (CCRF-CEM leukemia) was 169 nM and the TGI (CCRF-CEM leukemia) was greater than 100000 nM. For the same compound, the GI50 (HOP-62 NSCLC) was 267 nM, the TGI (HOP-62 NSCLC) was 6940 nM and the GI50 (KM12 colon) was 536 nM. The TGI (KM12 colon) was 19600 nM, the GI50 (M14 melanoma) was 351 nM and the TGI (M14 melanoma) was 3630 nM.

— PubChem BioAssay (NCI)
